Counter-ions that a name gives are not always drawn.
What was measured:
hNav1.7 [1] = target: T1, hNav1.7 (Homo sapiens (Human), UniProt Q15858); test: Tritiated compound binding to membranes from cells expressing hNav1.7 and the β1 subunit, modified protocol (LBA, Ex. 243B); conditions: 300 pM [3H]compound, room temperature, read-out: Nav1.7 LBA (Ex. 243B) IC50
Target sequence in this assay (Q15858 whole entry, looked up): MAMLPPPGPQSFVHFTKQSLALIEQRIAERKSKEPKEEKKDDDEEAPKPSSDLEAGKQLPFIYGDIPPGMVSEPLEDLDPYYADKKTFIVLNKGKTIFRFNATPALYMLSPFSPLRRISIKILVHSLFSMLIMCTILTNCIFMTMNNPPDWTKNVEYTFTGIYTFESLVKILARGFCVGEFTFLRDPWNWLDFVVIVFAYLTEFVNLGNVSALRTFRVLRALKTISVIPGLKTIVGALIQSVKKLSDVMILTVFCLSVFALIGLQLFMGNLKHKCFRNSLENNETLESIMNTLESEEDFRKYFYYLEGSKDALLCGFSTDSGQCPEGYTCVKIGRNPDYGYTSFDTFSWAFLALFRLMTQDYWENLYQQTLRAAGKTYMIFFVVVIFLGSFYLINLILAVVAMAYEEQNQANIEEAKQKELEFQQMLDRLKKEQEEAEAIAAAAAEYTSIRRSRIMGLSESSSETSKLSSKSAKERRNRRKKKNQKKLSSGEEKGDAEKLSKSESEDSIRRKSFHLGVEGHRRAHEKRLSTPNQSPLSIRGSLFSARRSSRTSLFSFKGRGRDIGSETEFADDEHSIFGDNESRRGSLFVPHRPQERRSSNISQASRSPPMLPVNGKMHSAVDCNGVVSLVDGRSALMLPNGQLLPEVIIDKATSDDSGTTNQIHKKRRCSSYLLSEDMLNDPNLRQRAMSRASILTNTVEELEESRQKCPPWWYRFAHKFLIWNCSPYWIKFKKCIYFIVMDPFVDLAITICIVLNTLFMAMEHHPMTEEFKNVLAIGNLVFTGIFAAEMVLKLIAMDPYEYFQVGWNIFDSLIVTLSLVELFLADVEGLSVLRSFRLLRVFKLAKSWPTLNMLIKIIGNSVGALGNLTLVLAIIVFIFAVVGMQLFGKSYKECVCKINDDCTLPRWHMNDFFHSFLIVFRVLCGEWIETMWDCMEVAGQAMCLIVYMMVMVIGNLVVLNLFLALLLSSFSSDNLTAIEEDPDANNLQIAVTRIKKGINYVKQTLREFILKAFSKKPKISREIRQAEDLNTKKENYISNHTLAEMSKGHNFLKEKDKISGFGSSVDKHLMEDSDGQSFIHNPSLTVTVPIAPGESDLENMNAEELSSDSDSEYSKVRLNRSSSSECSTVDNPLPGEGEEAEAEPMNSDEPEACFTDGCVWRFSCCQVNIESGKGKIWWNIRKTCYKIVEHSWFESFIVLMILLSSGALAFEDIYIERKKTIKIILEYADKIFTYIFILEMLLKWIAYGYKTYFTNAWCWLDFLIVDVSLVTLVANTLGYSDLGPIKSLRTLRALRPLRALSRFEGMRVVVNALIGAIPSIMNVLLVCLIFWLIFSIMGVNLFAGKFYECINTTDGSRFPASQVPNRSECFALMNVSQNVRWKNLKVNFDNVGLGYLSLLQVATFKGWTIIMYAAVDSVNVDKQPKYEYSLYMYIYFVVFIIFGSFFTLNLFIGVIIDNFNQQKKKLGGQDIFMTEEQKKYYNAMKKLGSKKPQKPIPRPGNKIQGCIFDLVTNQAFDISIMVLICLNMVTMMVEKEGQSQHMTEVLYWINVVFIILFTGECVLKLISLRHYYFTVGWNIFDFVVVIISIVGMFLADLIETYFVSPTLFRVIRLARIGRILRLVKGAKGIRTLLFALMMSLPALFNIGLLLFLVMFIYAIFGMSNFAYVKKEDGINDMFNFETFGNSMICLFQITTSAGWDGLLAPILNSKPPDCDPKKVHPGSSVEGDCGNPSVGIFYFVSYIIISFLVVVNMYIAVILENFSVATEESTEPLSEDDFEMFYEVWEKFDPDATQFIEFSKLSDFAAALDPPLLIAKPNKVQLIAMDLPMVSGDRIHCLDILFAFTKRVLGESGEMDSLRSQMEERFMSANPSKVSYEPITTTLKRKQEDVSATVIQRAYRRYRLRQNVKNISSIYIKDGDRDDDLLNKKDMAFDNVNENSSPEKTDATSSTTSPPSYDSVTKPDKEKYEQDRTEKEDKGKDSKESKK
Target sequence in this assay (Q07699 whole entry partner, looked up): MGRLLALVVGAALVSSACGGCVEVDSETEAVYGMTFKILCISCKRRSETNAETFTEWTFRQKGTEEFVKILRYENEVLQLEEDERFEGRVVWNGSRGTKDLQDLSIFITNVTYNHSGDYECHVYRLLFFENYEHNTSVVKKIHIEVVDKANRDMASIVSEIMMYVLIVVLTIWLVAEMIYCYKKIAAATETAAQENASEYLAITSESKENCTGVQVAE

hNav1.7 [2] = target: T1, hNav1.7; test: Patch voltage clamp electrophysiology assay (EP), Syncropatch 384PE, CHO cells expressing Nav1.7; format: cell-based; conditions: holding potential -50 mV; […] compound incubation; read-out: EP_SP hNav1.7 (Ex. 243B) IC50
Procedure, shortened: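 Automated whole-cell patch clamp on CHO cells stably expressing human Nav1.7, CsCl/EGTA internal and NMDG/80 mM Na+ external (pH 7.4). From −50 mV holding, −10 mV step, 20 ms recovery at −150 mV, then second −10 mV pulse where block is measured; inhibition after 7.5 min compound incubation.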
Target sequence in this assay (Q15858 other isoform, or with tags, fused parts or gaps): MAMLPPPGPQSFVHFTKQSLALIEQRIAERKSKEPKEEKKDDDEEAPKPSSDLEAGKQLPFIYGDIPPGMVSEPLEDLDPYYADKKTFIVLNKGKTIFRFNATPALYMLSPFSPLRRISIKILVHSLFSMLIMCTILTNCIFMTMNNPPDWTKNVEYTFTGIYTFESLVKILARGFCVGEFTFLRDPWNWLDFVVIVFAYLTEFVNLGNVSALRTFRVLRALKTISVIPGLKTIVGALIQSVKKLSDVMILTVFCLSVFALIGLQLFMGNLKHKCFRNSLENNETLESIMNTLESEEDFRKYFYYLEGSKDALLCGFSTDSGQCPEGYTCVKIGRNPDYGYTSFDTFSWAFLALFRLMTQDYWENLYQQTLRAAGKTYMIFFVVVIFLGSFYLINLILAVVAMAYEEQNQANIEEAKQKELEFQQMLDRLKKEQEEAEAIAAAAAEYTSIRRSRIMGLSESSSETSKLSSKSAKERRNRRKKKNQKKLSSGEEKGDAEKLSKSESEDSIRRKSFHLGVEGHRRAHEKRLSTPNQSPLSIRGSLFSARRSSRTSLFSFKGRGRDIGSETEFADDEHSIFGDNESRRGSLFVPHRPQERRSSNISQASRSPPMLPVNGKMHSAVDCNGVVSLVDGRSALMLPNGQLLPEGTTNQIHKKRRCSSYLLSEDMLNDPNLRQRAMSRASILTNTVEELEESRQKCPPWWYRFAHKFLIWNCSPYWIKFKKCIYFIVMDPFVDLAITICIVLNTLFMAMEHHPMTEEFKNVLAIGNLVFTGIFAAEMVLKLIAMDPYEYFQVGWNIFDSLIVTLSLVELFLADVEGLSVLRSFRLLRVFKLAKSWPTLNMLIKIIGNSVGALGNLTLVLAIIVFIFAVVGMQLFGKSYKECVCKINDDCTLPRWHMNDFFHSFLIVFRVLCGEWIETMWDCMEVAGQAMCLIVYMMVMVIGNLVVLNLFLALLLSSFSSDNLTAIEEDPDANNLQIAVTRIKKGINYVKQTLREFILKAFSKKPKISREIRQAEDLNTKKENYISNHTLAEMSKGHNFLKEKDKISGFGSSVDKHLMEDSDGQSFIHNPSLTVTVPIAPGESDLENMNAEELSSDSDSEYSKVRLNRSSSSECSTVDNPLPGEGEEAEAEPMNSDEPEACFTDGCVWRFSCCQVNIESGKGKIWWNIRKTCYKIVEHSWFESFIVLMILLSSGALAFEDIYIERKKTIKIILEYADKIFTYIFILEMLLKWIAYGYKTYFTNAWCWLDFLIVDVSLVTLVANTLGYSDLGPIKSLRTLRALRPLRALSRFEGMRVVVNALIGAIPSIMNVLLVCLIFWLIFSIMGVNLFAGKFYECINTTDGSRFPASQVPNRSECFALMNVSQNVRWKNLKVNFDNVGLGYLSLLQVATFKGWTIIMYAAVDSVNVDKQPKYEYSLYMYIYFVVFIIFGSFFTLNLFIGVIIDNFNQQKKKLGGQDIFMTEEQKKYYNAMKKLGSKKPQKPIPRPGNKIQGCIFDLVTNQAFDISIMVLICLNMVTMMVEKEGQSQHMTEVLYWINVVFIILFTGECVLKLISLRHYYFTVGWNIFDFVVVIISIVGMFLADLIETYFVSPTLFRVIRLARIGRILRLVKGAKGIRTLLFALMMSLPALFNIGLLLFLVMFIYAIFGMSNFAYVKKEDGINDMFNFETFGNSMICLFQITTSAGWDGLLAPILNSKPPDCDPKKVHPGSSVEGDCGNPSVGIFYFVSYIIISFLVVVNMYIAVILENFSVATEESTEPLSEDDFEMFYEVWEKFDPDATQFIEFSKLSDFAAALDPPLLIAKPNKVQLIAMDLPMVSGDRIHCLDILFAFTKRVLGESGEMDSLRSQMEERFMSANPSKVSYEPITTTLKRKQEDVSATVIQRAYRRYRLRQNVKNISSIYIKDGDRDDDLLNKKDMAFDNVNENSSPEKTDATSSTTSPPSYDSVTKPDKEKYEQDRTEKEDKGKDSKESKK

Compound: CN(C(=O)C(C)(C)N(C)C)[C@H]1CCCC[C@@H]1Nc1cc(F)c(S(=O)(=O)Nc2nccs2)cc1Cl [Example 198, N-((1S,2S)-2-((2-Chloro-5-fluoro-4-(N-(thiazol-2-yl)sulfamoyl)phenyl)amino)-cyclohexyl)-2-(dimethylamino)-N,2-dimethylpropanamide]
- IC50 (hNav1.7 [1]): 817 nM
- IC50 (hNav1.7 [2]): 65.8 nM

Compound: CN1CC[C@H](C(=O)N(C)[C@H]2CCCC[C@@H]2Nc2cc(F)c(S(=O)(=O)Nc3nccs3)cc2Cl)C1 [Example 199, (S)—N-((1S,2S)-2-((2-chloro-5-fluoro-4-(N-(thiazol-2-yl)sufamoyl)phenyl)amino)cyclohexyl)-N,1-dimethylpyrrolidine-3-carboxamide]
- IC50 (hNav1.7 [1]): 131 nM
- IC50 (hNav1.7 [2]): 18.7 nM

Compound: CN1CC[C@@H](C(=O)N(C)[C@H]2CCCC[C@@H]2Nc2cc(F)c(S(=O)(=O)Nc3nccs3)cc2Cl)C1 [Example 200, (R)—N-((1S,2S)-2-((2-chloro-5-fluoro-4-(N-(thiazol-2-yl)sulfamoyl)phenyl)amino)cyclohexyl)-N,1-dimethylpyrrolidine-3-carboxamide]
- IC50 (hNav1.7 [1]): 150 nM
- IC50 (hNav1.7 [2]): 16.7 nM

Compound: CN1CCC[C@H]1C(=O)N(C)[C@H]1CCCC[C@@H]1Nc1cc(F)c(S(=O)(=O)Nc2nccs2)cc1Cl [Example 201, (S)—N-((1S,2S)-2-((2-chloro-5-fluoro-4-(N-(thiazol-2-yl)sulfamoyl)phenyl)amino)cyclohexyl)-N,1-dimethylpyrrolidine-2-carboxamide]
- IC50 (hNav1.7 [1]): 308 nM
- IC50 (hNav1.7 [2]): 29.6 nM

Compound: CN1CC[C@H]1C(=O)N(C)[C@H]1CCCC[C@@H]1Nc1cc(F)c(S(=O)(=O)Nc2nccs2)cc1Cl [Example 202, (S)—N-((1S,2S)-2-((2-chloro-5-fluoro-4-(N-(thiazol-2-yl)sulfamoyl)phenyl)amino)cyclohexyl)-N,1-dimethylazetidine-2-carboxamide]
- IC50 (hNav1.7 [1]): 245 nM
- IC50 (hNav1.7 [2]): 34.4 nM

Compound: CN(C)[C@H]1C[C@@H](C(F)(F)F)CC[C@@H]1Nc1cc(F)c(S(=O)(=O)Nc2ccncn2)cc1C1CCC1 [Example 203, 5-cyclobutyl-4-(((1S,2S,4S)-2-(dimethylamino)-4-(trifluoromethyl)cyclohexyl)amino)-2-fluoro-N-(pyrimidin-4-yl)benzenesulfonamide]
- IC50 (hNav1.7 [1]): 80.6 nM
- IC50 (hNav1.7 [2]): 11.6 nM

Compound: CN1CCC[C@@H]1C(=O)N(C)[C@H]1CCCC[C@@H]1Nc1cc(F)c(S(=O)(=O)Nc2nccs2)cc1Cl [Example 204, (R)—N-((1S,2S)-2-((2-Chloro-5-fluoro-4-(N-(thiazol-2-yl)sulfamoyl)phenyl)amino)cyclohexyl)-N,1-dimethylpyrrolidine-2-carboxamide]
- IC50 (hNav1.7 [1]): 308 nM
- IC50 (hNav1.7 [2]): 20.5 nM

Compound: CN1CC[C@@H]1C(=O)N(C)[C@H]1CCCC[C@@H]1Nc1cc(F)c(S(=O)(=O)Nc2nccs2)cc1Cl [Example 205, (R)—N-((1S,2S)-2-((2-Chloro-5-fluoro-4-(N-(thiazol-2-yl)sulfamoyl)phenyl)amino)cyclohexyl)-N,1-dimethylazetidine-2-carboxamide]
- IC50 (hNav1.7 [1]): 556 nM
- IC50 (hNav1.7 [2]): 32.7 nM

Compound: O=S(=O)(Nc1ccncn1)c1cc(Cl)c(N[C@H]2CC[C@H](C(F)(F)F)C[C@@H]2N2CCCCC2)cc1F [Example 206, 5-chloro-2-fluoro-4-(((1S,2S,4S)-2-(piperidin-1-yl)-4-(trifluoromethyl)cyclohexyl)amino)-N-(pyrimidin-4-yl)benzenesulfonamide]
- IC50 (hNav1.7 [1]): 41.1 nM
- IC50 (hNav1.7 [2]): 8.65 nM

Compound: Cc1nc(NS(=O)(=O)c2cc(Cl)c(N[C@H]3CCCC[C@@H]3N(C)C)cc2F)sc1F [Example 211, 5-Chloro-4-(((1S,2S)-2-(dimethylamino)cyclohexyl)amino)-2-fluoro-N-(5-fluoro-4-methylthiazol-2-yl)benzenesulfonamide formate]
- IC50 (hNav1.7 [1]): 1430 nM
- IC50 (hNav1.7 [2]): 120 nM

Compound: O=S(=O)(Nc1nccs1)c1cc(Cl)c(N[C@H]2CCCC[C@@H]2N2CCC[C@](F)(CO)C2)cc1F [Example 212, 5-Chloro-2-fluoro-4-(((1S,2S)-2-((R)-3-fluoro-3-(hydroxymethyl)piperidin-1-yl)cyclohexyl)amino)-N-(thiazol-2-yl)benzenesulfonamide]
- IC50 (hNav1.7 [1]): 110 nM
- IC50 (hNav1.7 [2]): 6.59 nM

Compound: O=S(=O)(Nc1nccs1)c1cc(Cl)c(N[C@H]2CCCC[C@@H]2N2CCC[C@@](F)(CO)C2)cc1F [Example 213, 5-Chloro-2-fluoro-4-(((1S,2S)-2-((S)-3-fluoro-3-(hydroxymethyl)piperidin-1-yl)cyclohexyl)amino)-N-(thiazol-2-yl)benzenesulfonamide]
- IC50 (hNav1.7 [1]): 218 nM
- IC50 (hNav1.7 [2]): 13.9 nM

Compound: CN(C)[C@H]1C[C@H]2C[C@H]2C[C@@H]1Nc1cc(F)c(S(=O)(=O)Nc2nccs2)cc1Cl [Example 214, 5-Chloro-4-(((1S,3S,4S,6R)-4-(dimethylamino)bicyclo[4.1.0]heptan-3-yl)amino)-2-fluoro-N-(thiazol-2-yl)benzenesulfonamide]
- IC50 (hNav1.7 [1]): 53.1 nM
- IC50 (hNav1.7 [2]): 2.09 nM

Compound: CN(C)[C@@H]1C[C@@H]2C[C@@H]2C[C@H]1Nc1cc(F)c(S(=O)(=O)Nc2nccs2)cc1Cl [Example 215, 5-Chloro-4-(((1R,3R,4R,6S)-4-(dimethylamino)bicyclo[4.1.0]heptan-3-yl)amino)-2-fluoro-N-(thiazol-2-yl)benzenesulfonamide]
- IC50 (hNav1.7 [1]): 2000 nM
- IC50 (hNav1.7 [2]): 286 nM

Compound: CN(C)[C@H]1C[C@@H]2C[C@@H]2C[C@@H]1Nc1cc(F)c(S(=O)(=O)Nc2nccs2)cc1Cl [Example 216]
- IC50 (hNav1.7 [1]): 72.1 nM
- IC50 (hNav1.7 [2]): 4.77 nM

Compound: CN(C)[C@@H]1C[C@H]2C[C@H]2C[C@H]1Nc1cc(F)c(S(=O)(=O)Nc2nccs2)cc1Cl [Example 217, 5-Chloro-4-(((1S,3R,4R,6R)-4-(dimethylamino)bicyclo[4.1.0]heptan-3-yl)amino)-2-fluoro-N-(thiazol-2-yl)benzenesulfonamide]
- IC50 (hNav1.7 [1]): 1190 nM
- IC50 (hNav1.7 [2]): 112 nM

Compound: CN(C)[C@H]1C[C@H](c2cccc(C(F)(F)F)c2)CC[C@@H]1Nc1cc(F)c(S(=O)(=O)Nc2ccncn2)cc1Cl [Example 218, 5-chloro-4-(((1S,2S,4R)-2-(dimethylamino)-4-(3-(trifluoromethyl)phenyl)-cyclohexyl)amino)-2-fluoro-N-(pyrimidin-4-yl)benzenesulfonamide]
- IC50 (hNav1.7 [1]): 20.9 nM
- IC50 (hNav1.7 [2]): 1.6 nM

Compound: CN(C)[C@H]1C[C@@H](c2cccc(C3CC3)c2)CC[C@@H]1Nc1cc(F)c(S(=O)(=O)Nc2ccncn2)cc1Cl [Example 219, 5-chloro-4-(((1S,2S,4S)-4-(3-cyclopropylphenyl)-2-(dimethyamino)cyclohexyl)amino)-2-fluoro-N-(pyrimidin-4-yl)benzenesulfonamide]
- IC50 (hNav1.7 [1]): 1.71 nM
- IC50 (hNav1.7 [2]): 0.942 nM

Compound: O=S(=O)(Nc1ccncn1)c1cc(Cl)c(N[C@H]2CCCC[C@@H]2N2CCC[C@](F)(CO)C2)cc1F [Example 221, 5-Chloro-2-fluoro-4-(((1S,2S)-2-((R)-3-fluoro-3-(hydroxymethyl)piperidin-1-yl)cyclohexyl)amino)-N-(pyrimidin-4-yl)benzenesulfonamide]
- IC50 (hNav1.7 [1]): 298 nM
- IC50 (hNav1.7 [2]): 62.9 nM

Compound: O=S(=O)(Nc1ccncn1)c1cc(Cl)c(N[C@H]2CCCC[C@@H]2N2CCC[C@@](F)(CO)C2)cc1F [Example 222, 5-Chloro-2-fluoro-4-(((1S,2S)-2-((S)-3-fluoro-3-(hydroxymethyl)piperidin-1-yl)cyclohexyl)amino)-N-(pyrimidin-4-yl)benzenesulfonamide]
- IC50 (hNav1.7 [1]): 464 nM
- IC50 (hNav1.7 [2]): 124 nM

Compound: CCCc1cccc([C@H]2CC[C@H](Nc3cc(F)c(S(=O)(=O)Nc4ccncn4)cc3Cl)[C@@H](N(C)C)C2)c1 [Example 223, 5-Chloro-4-(((1S,2S,4S)-2-(dimethylamino)-4-(3-propylphenyl)cyclohexyl)amino)-2-fluoro-N-(pyrimidin-4-yl)benzenesulfonamide]
- IC50 (hNav1.7 [1]): 9.73 nM
- IC50 (hNav1.7 [2]): 1.45 nM

Compound: CN(C)[C@H]1C[C@@H](c2ccc(C(F)(F)F)cc2)CC[C@@H]1Nc1cc(F)c(S(=O)(=O)Nc2ccncn2)cc1Cl [Example 224, 5-Chloro-4-(((1S,2S,4S)-2-(dimethylamino)-4-(4-(trifluoromethyl)phenyl)cyclohexyl)amino)-2-fluoro-N-(pyrimidin-4-yl)benzenesulfonamide]
- IC50 (hNav1.7 [1]): 8.33 nM
- IC50 (hNav1.7 [2]): 2.36 nM

Compound: CN(C)[C@H]1C[C@@H](c2cccc(OC(F)(F)F)c2)CC[C@@H]1Nc1cc(F)c(S(=O)(=O)Nc2ccncn2)cc1Cl [Example 225, 5-Chloro-4-(((1S,2S,4S)-2-(dimethylamino)-4-(3-(trifluoromethoxy)phenyl)cyclohexyl)amino)-2-fluoro-N-(pyrimidin-4-yl)benzenesulfonamide]
- IC50 (hNav1.7 [1]): 0.643 nM
- IC50 (hNav1.7 [2]): 0.651 nM

Compound: CN[C@H]1C[C@@H](c2cccc(C(F)(F)F)c2)CC[C@@H]1Nc1cc(F)c(S(=O)(=O)Nc2ccncn2)cc1Cl [Example 226, 5-Chloro-2-fluoro-4-(((1S,2S,4S)-2-(methylamino)-4-(3-(trifluoromethyl)phenyl)cyclohexyl)amino)-N-(pyrimidin-4-yl)benzenesulfonamide]
- IC50 (hNav1.7 [1]): 1.45 nM
- IC50 (hNav1.7 [2]): 1.04 nM

Compound: CN(C)[C@H]1C[C@@H](c2cccc(C(F)(F)F)c2)CC[C@@H]1Nc1cc(F)c(S(=O)(=O)Nc2ccncn2)cc1Br [Example 227, 5-Bromo-4-(((1S,2S,4S)-2-(dimethylamino)-4-(3-(trifluoromethyl)phenyl)cyclohexyl)amino)-2-fluoro-N-(pyrimidin-4-yl)benzenesulfonamide]
- IC50 (hNav1.7 [1]): 0.69 nM
- IC50 (hNav1.7 [2]): 1.19 nM

Compound: CN(C)[C@H]1C[C@@H](c2cccc(C(F)(F)F)c2)CC[C@@H]1Nc1cc(F)c(S(=O)(=O)Nc2ccon2)cc1Cl [Example 228, 5-chloro-4-(((1S,2S,4S)-2-(dimethylamino)-4-(3-(trifluoromethyl)phenyl)cyclohexyl)amino)-2-fluoro-N-(isoxazol-3-yl)benzenesulfonamide]
- IC50 (hNav1.7 [1]): 5.78 nM
- IC50 (hNav1.7 [2]): 0.846 nM

Source: US10457654B2 (GENENTECH, INC., priority 2017, dated 2019)
